# pIC50: −log10 of the molar value.
# Biological target: T1, PTP-1b (Homo sapiens, UniProt P18031)
# T1 construct: purchased Bioneer, Korea
# T1 sequence (P18031 1-435): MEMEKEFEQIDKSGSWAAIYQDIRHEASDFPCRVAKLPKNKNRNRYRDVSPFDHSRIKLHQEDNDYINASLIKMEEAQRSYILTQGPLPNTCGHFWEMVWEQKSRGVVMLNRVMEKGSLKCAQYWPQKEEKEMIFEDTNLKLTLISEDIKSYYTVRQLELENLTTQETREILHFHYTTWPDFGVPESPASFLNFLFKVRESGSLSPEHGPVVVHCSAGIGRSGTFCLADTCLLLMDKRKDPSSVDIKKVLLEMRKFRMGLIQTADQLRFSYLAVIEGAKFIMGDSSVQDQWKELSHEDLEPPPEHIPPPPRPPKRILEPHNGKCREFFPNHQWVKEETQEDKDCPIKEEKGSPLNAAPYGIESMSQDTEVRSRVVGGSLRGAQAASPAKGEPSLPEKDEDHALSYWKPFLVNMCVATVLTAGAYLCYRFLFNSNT
# Test: PTP-1b inhibitory activity of lobaric acid (control), pNPP assay
# Type: biochemical
# Details: read-out: IC50 against PTP-1b
# Description: Meanwhile, the PTP-1b inhibitory activity of lobaric acid as a control was measured. PTP-1b used in the test was purchased from BIOMOL (USA). In order to spectroscopically measure the activity of the enzyme, about 0.2 μg/Ml of PTP-1b, PTP-1b buffer (50 mM citrate, pH 6.0, 0.1M NaCl, 1 mM EDTA, 1 mM DTT), lobaric acid, 4 mM pNPP were mixed, shaken lightly, and then reacted at 37° C. for 30 minutes, after which the absorbance at 405 nm was measured.
structure (smiles),measurement,value
CCCCCc1c2c(cc(O)c1C(=O)O)OC(=O)c1c(cc(OC)cc1C(=O)CCCC)O2 [lobaric acid],pIC50,6.06
